Literature values as cited in US20070207944A1, “Blood Pressure Lowering Oligopeptides” (priority 2004, published 2007).

What was measured:
ACE = ACE (Homo sapiens, UniProt P12821); settings: for ACE inhibiting activity: in vitro, as reported in the literature
[1] = test system: spontaneously hypertensive rats; settings: Nakamura et al. 1995, tripeptides from fermented milk

ACE, sequence (P12821 30-1306, species assumed): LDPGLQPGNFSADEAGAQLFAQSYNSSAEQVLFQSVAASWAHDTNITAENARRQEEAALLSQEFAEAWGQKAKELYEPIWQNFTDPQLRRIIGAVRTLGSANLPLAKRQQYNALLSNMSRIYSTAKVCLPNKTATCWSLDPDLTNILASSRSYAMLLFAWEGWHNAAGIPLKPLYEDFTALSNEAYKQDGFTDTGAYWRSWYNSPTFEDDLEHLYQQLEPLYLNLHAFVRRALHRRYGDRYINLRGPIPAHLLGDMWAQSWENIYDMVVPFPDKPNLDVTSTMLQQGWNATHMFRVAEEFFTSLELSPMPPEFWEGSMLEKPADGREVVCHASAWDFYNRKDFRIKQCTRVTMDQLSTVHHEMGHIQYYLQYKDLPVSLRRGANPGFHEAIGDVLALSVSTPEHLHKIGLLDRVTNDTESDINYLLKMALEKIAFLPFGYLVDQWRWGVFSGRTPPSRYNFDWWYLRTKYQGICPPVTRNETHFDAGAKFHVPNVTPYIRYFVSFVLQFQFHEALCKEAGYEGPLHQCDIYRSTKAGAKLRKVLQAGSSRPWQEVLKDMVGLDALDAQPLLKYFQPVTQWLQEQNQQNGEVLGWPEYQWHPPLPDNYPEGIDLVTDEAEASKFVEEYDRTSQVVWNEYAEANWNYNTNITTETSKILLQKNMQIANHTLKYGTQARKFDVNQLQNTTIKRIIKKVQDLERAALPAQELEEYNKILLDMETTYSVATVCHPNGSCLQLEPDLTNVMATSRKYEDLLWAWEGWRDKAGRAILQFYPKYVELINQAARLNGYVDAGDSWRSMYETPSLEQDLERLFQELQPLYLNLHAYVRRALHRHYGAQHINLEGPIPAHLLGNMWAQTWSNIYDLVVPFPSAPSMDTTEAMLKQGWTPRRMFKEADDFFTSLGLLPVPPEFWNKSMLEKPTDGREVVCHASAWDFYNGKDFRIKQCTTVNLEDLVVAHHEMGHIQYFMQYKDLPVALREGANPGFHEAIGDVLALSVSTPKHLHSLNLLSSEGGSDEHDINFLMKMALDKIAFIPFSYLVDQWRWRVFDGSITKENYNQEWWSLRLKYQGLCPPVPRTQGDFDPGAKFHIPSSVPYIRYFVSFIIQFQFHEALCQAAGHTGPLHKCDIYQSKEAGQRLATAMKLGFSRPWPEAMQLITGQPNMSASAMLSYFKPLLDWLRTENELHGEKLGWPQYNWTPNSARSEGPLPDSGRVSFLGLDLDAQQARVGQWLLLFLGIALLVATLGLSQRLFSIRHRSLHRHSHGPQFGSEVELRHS

ACE inhibiting activity (ACE)	Substance	IC50 (ACE; reported by EP 0 583 074, read-out: IC50 value (ACE inhibition)) [µM]	antihypertensive effects [1]
Strong ACE inhibiting activities	Leu-Pro-Pro [LPP]	–	–
Strong ACE inhibiting activities	Ile-Pro-Pro [IPP]	–	could be confirmed

Substance	ACE inhibiting activity (ACE)	IC50 (ACE; reported by EP 0 583 074, read-out: IC50 value (ACE inhibition)) [µM]	antihypertensive effects [1]
Val-Pro-Pro [VPP]	Strong ACE inhibiting activities	9	could be confirmed
